Assay results from patent publication US10106556B2, “Heterocyclic compound” (TAKEDA PHARMACEUTICAL COMPANY LIMITED, priority 2015, dated 2018).

Target: T1, His-hMAGL (recombinant polyhistidine tagged human MAGL protein) (Homo sapiens, UniProt Q99685)
T1 construct: made in house; host or cells: E. coli BL21(DE3)
T1 sequence (Q99685 1-303): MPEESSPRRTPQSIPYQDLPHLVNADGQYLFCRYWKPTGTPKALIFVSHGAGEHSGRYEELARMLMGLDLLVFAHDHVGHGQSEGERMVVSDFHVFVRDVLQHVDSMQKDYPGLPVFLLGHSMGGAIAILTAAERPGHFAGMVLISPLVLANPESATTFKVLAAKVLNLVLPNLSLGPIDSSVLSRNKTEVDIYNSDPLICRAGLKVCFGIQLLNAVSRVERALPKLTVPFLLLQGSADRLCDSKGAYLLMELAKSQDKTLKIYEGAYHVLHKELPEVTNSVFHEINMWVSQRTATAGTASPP
Assay: Measurement of MAGL inhibitory activity (arachidonic acid production from 2-arachidonylglycerol, RapidFire-mass spectrometry)
Format: biochemical
Conditions: MAGL inhibitory rate at 10 μM test compound; 60 min preincubation with His-hMAGL, 2-arachidonylglycerol substrate, 10 min reaction at room temperature
Experimental: Furthermore, acetonitrile (50 μL) containing 3 μM arachidonic acid-d8 (Cayman Chemical Company) was added and the mixture was stirred.
The amount of arachidonic acid in the obtained enzyme reaction mixture was calculated by measuring by RapidFire-mass spectrometry and correcting by the amount of arachidonic acid-d8. High Throughput online solid phase extraction was performed using RapidFire 300™ system (Agilent Technologies, Inc.). Samples were loaded on SPE C4 cartridge (Agilent Technologies, Inc.) and desalted with 0.2 (v/v) % acetic acid (Wako Pure Chemical Industries, Ltd.) in ultrapure water/acetonitrile (70/30, v/v) at a flow rate of 1.5 mL/min, eluted at a flow rate of 0.5 mL/min with 0.2 (v/v) % acetic acid dissolved in acetonitrile/ultrapure water (90/10, v/v), and injected into the mass spectrometry part. The injection needle was washed with ultrapure water (500 millisecond) and acetonitrile (500 millisecond) to minimize carry-over. […] The RapidFire300 system was controlled by RapidFire UI software version 3.6 (Agilent Technologies, Inc.).
The mass spectrometry of the resultant product was performed using API4000™ triple quadrupole mass spectrometer (AB SCIEX) equipped with an electrospray ion sauce (TurboIon Spray™) in a negative selected reaction monitoring (SRM) mode. The conditions of SRM are shown below. The parameters of the instrument were optimized as follows: capillary temperature 600° C., ion spray voltage −4.5 kV, collision gas 8, curtain gas 15 psi, ion source gas 1 60 psi, ion source gas 2 60 psi. The mass spectrometer was controlled by Analyst™ software version 1.5.1 (AB SCIEX). The peak area integration was analyzed using RapidFire integrator software version 3.6 (Agilent Technologies, Inc.).
MAGL inhibitory rate (%) was calculated according to the following calculation formula. (1−(arachidonic acid production amount of test compound addition group−arachidonic acid production amount of enzyme−free group)÷(arachidonic acid production amount of test compound-free group−arachidonic acid production amount of enzyme-free group))×100

inhibition at 10 µM [%] | Compound
98 | O=C1COc2ccc(C(=O)N3CCC(COc4cc(Cl)cc(Cl)c4)CC3)cc2N1 [Example 45, 6-((4-((3,5-dichlorophenoxy)methyl)piperidin-1-yl)carbonyl)-2H-1,4-benzoxazin-3(4H)-one]
98 | O=C1COc2ccc(C(=O)N3CCC(COc4cc(Cl)ncc4Cl)CC3)cc2N1 [Example 47, 6-((4-(((2,5-dichloropyridin-4-yl)oxy)methyl)piperidin-1-yl)carbonyl)-2H-1,4-benzoxazin-3(4H)-one]
102 | N#Cc1ccc(OCC2CCN(C(=O)c3ccc4c(c3)NC(=O)CO4)CC2)c(Cl)c1 [Example 52, 3-chloro-4-((1-((3-oxo-3,4-dihydro-2H-1,4-benzoxazin-6-yl)carbonyl)piperidin-4-yl)methoxy)benzonitrile]
101 | O=C1COc2ccc(C(=O)N3CCC(COc4cccc(F)c4Cl)CC3)cc2N1 [Example 56, 6-((4-((2-chloro-3-fluorophenoxy)methyl)piperidin-1-yl)carbonyl)-2H-1,4-benzoxazin-3(4H)-one]
104 | O=C1COc2cc(F)c(C(=O)N3CCC(COc4ccc(F)cc4Cl)CC3)cc2N1 [Example 66, 6-((4-((2-chloro-4-fluorophenoxy)methyl)piperidin-1-yl)carbonyl)-7-fluoro-2H-1,4-benzoxazin-3(4H)-one]
96 | N#Cc1cc(C(F)(F)F)ccc1OCC1CCN(C(=O)c2cc3c(cc2F)OCC(=O)N3)CC1 [Example 68, 2-((1-((7-fluoro-3-oxo-3,4-dihydro-2H-1,4-benzoxazin-6-yl)carbonyl)piperidin-4-yl)methoxy)-5-(trifluoromethyl)benzonitrile]
100 | N#Cc1ccc(OCC2CCN(C(=O)c3cc4c(cc3F)OCC(=O)N4)CC2)c(Cl)c1 [Example 70, 3-chloro-4-((1-((7-fluoro-3-oxo-3,4-dihydro-2H-1,4-benzoxazin-6-yl)carbonyl)piperidin-4-yl)methoxy)benzonitrile]
100 | O=C1COc2cc(F)c(C(=O)N3CCC(COc4ccc(Cl)nc4Cl)CC3)cc2N1 [Example 71, 6-((4-(((2,6-dichloropyridin-3-yl)oxy)methyl)piperidin-1-yl)carbonyl)-7-fluoro-2H-1,4-benzoxazin-3(4H)-one]
100 | N#Cc1cc(Cl)ccc1OCC1CCN(C(=O)c2cc3c(cc2F)OCC(=O)N3)CC1 [Example 72, 5-chloro-2-((1-((7-fluoro-3-oxo-3,4-dihydro-2H-1,4-benzoxazin-6-yl)carbonyl)piperidin-4-yl)methoxy)benzonitrile]
102 | O=C1COc2cc(F)c(C(=O)N3CCC(O)(COc4ccc(F)cc4Cl)CC3)cc2N1 [Example 73, 6-((4-((2-chloro-4-fluorophenoxy)methyl)-4-hydroxypiperidin-1-yl)carbonyl)-7-fluoro-2H-1,4-benzoxazin-3(4H)-one]

More lines, now with the values behind:

Compound | inhibition at 10 µM [%]
O=C1COc2ccc(C(=O)N3CCC(COc4ccnc(Cl)c4Cl)CC3)cc2N1 [Example 46, 6-((4-(((2,3-dichloropyridin-4-yl)oxy)methyl)piperidin-1-yl)carbonyl)-2H-1,4-benzoxazin-3(4H)-one] | 98
N#Cc1cccc(OCC2CCN(C(=O)c3ccc4c(c3)NC(=O)CO4)CC2)c1 [Example 48, 3-((1-((3-oxo-3,4-dihydro-2H-1,4-benzoxazin-6-yl)carbonyl)piperidin-4-yl)methoxy)benzonitrile] | 89
N#Cc1ccc(OCC2CCN(C(=O)c3ccc4c(c3)NC(=O)CO4)CC2)cc1 [Example 49, 4-((1-((3-oxo-3,4-dihydro-2H-1,4-benzoxazin-6-yl)carbonyl)piperidin-4-yl)methoxy)benzonitrile] | 92
O=C1COc2ccc(C(=O)N3CCC(COc4ccccc4OC(F)(F)F)CC3)cc2N1 [Example 53, 6-((4-((2-(trifluoromethoxy)phenoxy)methyl)piperidin-1-yl)carbonyl)-2H-1,4-benzoxazin-3(4H)-one] | 96
O=C1COc2ccc(C(=O)N3CCC(COc4cccc(OC(F)(F)F)c4)CC3)cc2N1 [Example 54, 6-((4-((3-(trifluoromethoxy)phenoxy)methyl)piperidin-1-yl)carbonyl)-2H-1,4-benzoxazin-3(4H)-one] | 98
O=C1COc2ccc(C(=O)N3CCC(COc4ccc(OC(F)(F)F)cc4)CC3)cc2N1 [Example 55, 6-((4-((4-(trifluoromethoxy)phenoxy)methyl)piperidin-1-yl)carbonyl)-2H-1,4-benzoxazin-3(4H)-one] | 96
O=C1COc2ccc(C(=O)N3CCC(COc4cccc(C(F)(F)F)c4)CC3)cc2N1 [Example 57, 6-((4-((3-(trifluoromethyl)phenoxy)methyl)piperidin-1-yl)carbonyl)-2H-1,4-benzoxazin-3(4H)-one] | 99
O=C1COc2ccc(C(=O)N3CCC(COc4ccc(C(F)(F)F)cc4)CC3)cc2N1 [Example 58, 6-((4-((4-(trifluoromethyl)phenoxy)methyl)piperidin-1-yl)carbonyl)-2H-1,4-benzoxazin-3(4H)-one] | 100
O=C1COc2ccc(C(=O)N3CCC(COc4cccc5ccccc45)CC3)cc2N1 [Example 59, 6-((4-((1-naphthyloxy)methyl)piperidin-1-yl)carbonyl)-2H-1,4-benzoxazin-3(4H)-one] | 102
O=C1COc2ccc(C(=O)N3CCC(COc4ccc5ccccc5c4)CC3)cc2N1 [Example 60, 6-((4-((2-naphthyloxy)methyl)piperidin-1-yl)carbonyl)-2H-1,4-benzoxazin-3(4H)-one] | 92
O=C1COc2ccc(C(=O)N3CCC(COc4ccc5[nH]ncc5c4)CC3)cc2N1 [Example 61, 6-((4-((1H-indazol-5-yloxy)methyl)piperidin-1-yl)carbonyl)-2H-1,4-benzoxazin-3(4H)-one] | 94
O=C1COc2ccc(C(=O)N3CCC(COc4nc5ccccc5s4)CC3)cc2N1 [Example 62, 6-((4-((1,3-benzothiazol-2-yloxy)methyl)piperidin-1-yl)carbonyl)-2H-1,4-benzoxazin-3(4H)-one] | 86
CC(=O)n1ncc2c(OCC3CCN(C(=O)c4ccc5c(c4)NC(=O)CO5)CC3)cccc21 [Example 63, 6-((4-(((1-acetyl-1H-indazol-4-yl)oxy)methyl)piperidin-1-yl)carbonyl)-2H-1,4-benzoxazin-3(4H)-one] | 93
O=C1COc2ccc(C(=O)N3CCC(COc4cccc5[nH]ncc45)CC3)cc2N1 [Example 64, 6-((4-((1H-indazol-4-yloxy)methyl)piperidin-1-yl)carbonyl)-2H-1,4-benzoxazin-3(4H)-one] | 101
O=C1COc2ccc(C(=O)N3CCC(COc4ccccc4C4CC4)CC3)cc2N1 [Example 65, 6-((4-((2-cyclopropylphenoxy)methyl)piperidin-1-yl)carbonyl)-2H-1,4-benzoxazin-3(4H)-one] | 96
N#Cc1cc(C(F)(F)F)ccc1OCC1CCN(C(=O)c2ccc3c(c2)NC(=O)CO3)CC1 [Example 67] | 101
N#Cc1cc(C(F)(F)F)ccc1OCC1CCN(C(=O)c2ccc3c(c2)NC(=O)C3)CC1 [Example 69, 2-((1-((2-oxo-2,3-dihydro-1H-indol-6-yl)carbonyl)piperidin-4-yl)methoxy)-5-(trifluoromethyl)benzonitrile] | 99
